One experiment has as its system MOLM-13 cells. Description: Cell viability assay (CellTiter-Glo) in MOLM-13 cells, alone or with gilteritinib. It is filed as cell-based. The settings on record: Homo sapiens, MOLM-13, 72 h, MOLM-13 cells, three days, CellTiter-Glo. (In general: In ATP-based viability assays light output follows the ATP content of the culture.)
The test system of the next experiment is MV4;11 cells. Description: Cell viability assay (CellTiter-Glo) in MV4;11 cells, alone or with gilteritinib. It is filed as cell-based. The settings on record: Homo sapiens, MV4-11, 72 h, MV4;11 cells, three days, CellTiter-Glo, read-out: MV4.
The mark [1] stands for this setting: compound alone (without gilteritinib), read-out: MOLM-13 IC50.
Setting [2] is: with gilteritinib 20 nM, read-out: MOLM-13 IC50 gilteritinib.
Where [3] appears, read: compound alone (without gilteritinib), 11 IC50.
[4] abbreviates: with gilteritinib 10 nM, 11 IC50 gilteritinib.

pIC50: −log10 of the molar value. Read-outs that look alike come from different tables or passages of the source.

For the molecule `COc1ccnc(-c2cn([C@H]3C[C@H](CNc4ccc5c(c4)C(=O)N(C4CCC(=O)NC4=O)C5=O)C3)nc2C2CC2)c1` (stereo partly drawn) [GS-254, 5-(((trans-3-(3-Cyclopropyl-4-(4-methoxypyridin-2-yl)-1H-pyrazol-1-yl)cyclobutyl)methyl)amino)-2-(2,6-dioxopiperidin-3-yl)isoindoline-1,3-dione], the pIC50 is 7.00 to 8.00 in the experiment on MOLM-13 cells (setting [1]), more than 8.00 in the experiment on MOLM-13 cells (setting [2]), 7.00 to 8.00 in the experiment with MV4;11 cells (setting [3]) and more than 8.00 with MV4;11 cells (setting [4]).

For `O=C1CCC(N2C(=O)c3ccc(NC[C@H]4C[C@H](n5cc(-c6ccc(Cl)cn6)c(C6CC6)n5)C4)cc3C2=O)C(=O)N1` (stereo partly drawn) [GS-255, 5-(((trans-3-(4-(5-Chloropyridin-2-yl)-3-cyclopropyl-1H-pyrazol-1-yl)cyclobutyl)methyl)amino)-2-(2,6-dioxopiperidin-3-yl)isoindoline-1,3-dione], the pIC50 with MOLM-13 cells (setting [1]) is 6.00 to 7.00; with MOLM-13 cells (setting [2]) it was more than 8.00; with MV4;11 cells (setting [3]) it was 7.00 to 8.00; in the experiment on MV4;11 cells (setting [4]), more than 8.00.

Turning to `Cc1ccc(-c2cn([C@H]3C[C@H](CNc4ccc5c(c4)C(=O)N(C4CCC(=O)NC4=O)C5=O)C3)nc2C2CC2)nc1` (stereo partly drawn) [GS-256, 5-(((trans-3-(3-Cyclopropyl-4-(5-methylpyridin-2-yl)-1H-pyrazol-1-yl)cyclobutyl)methyl)amino)-2-(2,6-dioxopiperidin-3-yl)isoindoline-1,3-dione], the pIC50 with MOLM-13 cells (setting [1]) was 6.00 to 7.00; in the experiment with MOLM-13 cells (setting [2]) it was more than 8.00; with MV4;11 cells (setting [3]), 7.00 to 8.00; with MV4;11 cells (setting [4]) it was more than 8.00.

As to `O=C1CCC(N2C(=O)c3ccc(NC[C@H]4C[C@H](n5cc(-c6cccc(N7CCC7)n6)c(C6CC6)n5)C4)cc3C2=O)C(=O)N1` (stereo partly drawn) [GS-257, 5-(((trans-3-(4-(6-(Azetidin-1-yl)pyridin-2-yl)-3-cyclopropyl-1H-pyrazol-1-yl)cyclobutyl)methyl)amino)-2-(2,6-dioxopiperidin-3-yl)isoindoline-1,3-dione], the pIC50 in the experiment on MOLM-13 cells (setting [1]) is 7.00 to 8.00; in the experiment with MOLM-13 cells (setting [2]), more than 8.00; in the experiment with MV4;11 cells (setting [3]) it was more than 8.00; in the experiment on MV4;11 cells (setting [4]) it was more than 8.00.

As to `O=C1CCC(N2C(=O)c3ccc(NC[C@H]4C[C@H](n5cc(-c6cccc(NC7CCC7)n6)c(C6CC6)n5)C4)cc3C2=O)C(=O)N1` (stereo partly drawn) [GS-258, 5-(((trans-3-(4-(6-(Cyclobutylamino)pyridin-2-yl)-3-cyclopropyl-1H-pyrazol-1-yl)cyclobutyl)methyl)amino)-2-(2,6-dioxopiperidin-3-yl)isoindoline-1,3-dione], the pIC50 in the experiment on MOLM-13 cells (setting [1]) is less than 6.00; in the experiment on MOLM-13 cells (setting [2]), 7.00 to 8.00; in the experiment with MV4;11 cells (setting [3]) it was 6.00 to 7.00; with MV4;11 cells (setting [4]) it was 7.00 to 8.00.

`CN(C)c1cccc(-c2cn([C@H]3C[C@H](CNc4ccc5c(c4)C(=O)N(C4CCC(=O)NC4=O)C5=O)C3)nc2C2CC2)n1` (stereo partly drawn) [GS-259, 5-(((trans-3-(3-Cyclopropyl-4-(6-(dimethylamino)pyridin-2-yl)-1H-pyrazol-1-yl)cyclobutyl)methyl)amino)-2-(2,6-dioxopiperidin-3-yl)isoindoline-1,3-dione]: the pIC50 with MOLM-13 cells (setting [1]) was 7.00 to 8.00; in the experiment on MOLM-13 cells (setting [2]) it was more than 8.00; in the experiment with MV4;11 cells (setting [3]), more than 8.00; in the experiment with MV4;11 cells (setting [4]), more than 8.00.

Regarding `O=C1CCC(N2C(=O)c3ccc(NC[C@H]4C[C@H](n5cc(-c6cccc(NC7COC7)n6)c(C6CC6)n5)C4)cc3C2=O)C(=O)N1` (stereo partly drawn) [GS-260, 5-(((trans-3-(3-Cyclopropyl-4-(6-(oxetan-3-ylamino)pyridin-2-yl)-1H-pyrazol-1-yl)cyclobutyl)methyl)amino)-2-(2,6-dioxopiperidin-3-yl)isoindoline-1,3-dione], the pIC50 with MOLM-13 cells (setting [1]) is 6.00 to 7.00; with MOLM-13 cells (setting [2]), less than 6.00; with MV4;11 cells (setting [3]) it was less than 6.00; with MV4;11 cells (setting [4]), less than 6.00.

For `Cc1cccnc1-c1cn([C@H]2C[C@H](CNc3ccc4c(c3)C(=O)N(C3CCC(=O)NC3=O)C4=O)C2)nc1C1CC1` (stereo partly drawn) [GS-261, 5-(((trans-3-(3-Cyclopropyl-4-(3-methylpyridin-2-yl)-1H-pyrazol-1-yl)cyclobutyl)methyl)amino)-2-(2,6-dioxopiperidin-3-yl)isoindoline-1,3-dione], the pIC50 in the experiment on MOLM-13 cells (setting [1]), in the experiment on MOLM-13 cells (setting [2]), in the experiment with MV4;11 cells (setting [3]) and with MV4;11 cells (setting [4]) was more than 8.00 in each case.

In the case of `COc1cccnc1-c1cn([C@H]2C[C@H](CNc3ccc4c(c3)C(=O)N(C3CCC(=O)NC3=O)C4=O)C2)nc1C1CC1` (stereo partly drawn) [GS-262, 5-(((trans-3-(3-Cyclopropyl-4-(3-methoxypyridin-2-yl)-1H-pyrazol-1-yl)cyclobutyl)methyl)amino)-2-(2,6-dioxopiperidin-3-yl)isoindoline-1,3-dione], the pIC50 with MOLM-13 cells (setting [1]), with MOLM-13 cells (setting [2]), with MV4;11 cells (setting [3]) and in the experiment with MV4;11 cells (setting [4]) was more than 8.00 each time.

In the case of `CNc1cccc(-c2cn([C@H]3C[C@H](CNc4ccc5c(c4)C(=O)N(C4CCC(=O)NC4=O)C5=O)C3)nc2C2CC2)n1` (stereo partly drawn) [GS-263, 5-(((trans-3-(3-Cyclopropyl-4-(6-(methylamino)pyridin-2-yl)-1H-pyrazol-1-yl)cyclobutyl)methyl)amino)-2-(2,6-dioxopiperidin-3-yl)isoindoline-1,3-dione], the pIC50 in the experiment with MOLM-13 cells (setting [1]) was 6.00 to 7.00; with MOLM-13 cells (setting [2]), 7.00 to 8.00; in the experiment on MV4;11 cells (setting [3]), 6.00 to 7.00; in the experiment on MV4;11 cells (setting [4]), 7.00 to 8.00.

For `O=C1CCC(N2C(=O)c3ccc(NC[C@H]4C[C@H](n5cc(-c6cc(Cl)ccn6)c(C6CC6)n5)C4)cc3C2=O)C(=O)N1` (stereo partly drawn) [GS-264, 5-(((trans-3-(4-(4-Chloropyridin-2-yl)-3-cyclopropyl-1H-pyrazol-1-yl)cyclobutyl)methyl)amino)-2-(2,6-dioxopiperidin-3-yl)isoindoline-1,3-dione], the pIC50 in the experiment with MOLM-13 cells (setting [1]) is 7.00 to 8.00; in the experiment with MOLM-13 cells (setting [2]) it was more than 8.00; in the experiment on MV4;11 cells (setting [3]), 7.00 to 8.00; in the experiment with MV4;11 cells (setting [4]), more than 8.00.

Turning to `O=C1CCC(N2C(=O)c3ccc(NC[C@H]4C[C@H](n5cc(-c6ccncc6)c(C6CC6)n5)C4)cc3C2=O)C(=O)N1` (stereo partly drawn) [GS-265, 5-(((trans-3-(3-Cyclopropyl-4-(pyridin-4-yl)-1H-pyrazol-1-yl)cyclobutyl)methyl)amino)-2-(2,6-dioxopiperidin-3-yl)isoindoline-1,3-dione], the pIC50 with MOLM-13 cells (setting [1]) was less than 6.00; in the experiment with MOLM-13 cells (setting [2]) it was 6.00 to 7.00; in the experiment on MV4;11 cells (setting [3]), less than 6.00; in the experiment with MV4;11 cells (setting [4]), 6.00 to 7.00.

On to `O=C1CCC(N2C(=O)c3ccc(NC[C@H]4C[C@H](n5cc(-c6cnc7c(N8CCOCC8)cccc7n6)c(C6CC6)n5)C4)cc3C2=O)C(=O)N1` (stereo partly drawn) [GS-266, 5-(((trans-3-(3-Cyclopropyl-4-(5-morpholinoquinoxalin-2-yl)-1H-pyrazol-1-yl)cyclobutyl)methyl)amino)-2-(2,6-dioxopiperidin-3-yl)isoindoline-1,3-dione], for which the pIC50 in the experiment on MOLM-13 cells (setting [1]), in the experiment with MOLM-13 cells (setting [2]), in the experiment with MV4;11 cells (setting [3]) and with MV4;11 cells (setting [4]) was more than 8.00 each time.

Turning to `CN1CCN(c2cccc3nc(-c4cn([C@H]5C[C@H](CNc6ccc7c(c6)C(=O)N(C6CCC(=O)NC6=O)C7=O)C5)nc4C4CC4)cnc23)CC1` (stereo partly drawn) [GS-267, 5-(((trans-3-(3-Cyclopropyl-4-(5-(4-methylpiperazin-1-yl)quinoxalin-2-yl)-1H-pyrazol-1-yl)cyclobutyl)methyl)amino)-2-(2,6-dioxopiperidin-3-yl)isoindoline-1,3-dione], the pIC50 in the experiment with MOLM-13 cells (setting [1]), with MOLM-13 cells (setting [2]), in the experiment on MV4;11 cells (setting [3]) and in the experiment with MV4;11 cells (setting [4]) was more than 8.00 in each case.

As to `O=C1CCC(N2C(=O)c3ccc(NC[C@H]4C[C@H](n5cc(-c6cccnc6)c(C6CC6)n5)C4)cc3C2=O)C(=O)N1` (stereo partly drawn) [GS-268, 5-(((trans-3-(3-Cyclopropyl-4-(pyridin-3-yl)-1H-pyrazol-1-yl)cyclobutyl)methyl)amino)-2-(2,6-dioxopiperidin-3-yl)isoindoline-1,3-dione], the pIC50 was 6.00 to 7.00 in the experiment on MOLM-13 cells (setting [1]), 7.00 to 8.00 with MOLM-13 cells (setting [2]), 6.00 to 7.00 in the experiment with MV4;11 cells (setting [3]) and 7.00 to 8.00 in the experiment with MV4;11 cells (setting [4]).

In the case of `O=C1CCC(N2C(=O)c3ccc(NC[C@H]4C[C@H](n5cc(-c6cccc(NC7CC(O)C7)n6)c(C6CC6)n5)C4)cc3C2=O)C(=O)N1` (stereo partly drawn) [GS-269, 5-(((trans-3-(3-Cyclopropyl-4-(6-((3-hydroxycyclobutyl)amino)pyridin-2-yl)-1H-pyrazol-1-yl)cyclobutyl)methyl)amino)-2-(2,6-dioxopiperidin-3-yl)isoindoline-1,3-dione], the pIC50 is less than 6.00 with MOLM-13 cells (setting [1]), less than 6.00 in the experiment with MOLM-13 cells (setting [2]), less than 6.00 in the experiment on MV4;11 cells (setting [3]) and 6.00 to 7.00 in the experiment with MV4;11 cells (setting [4]).

For `O=C1CCC(N2C(=O)c3ccc(NC[C@H]4C[C@H](n5cc(-c6cccc(=O)[nH]6)c(C6CC6)n5)C4)cc3C2=O)C(=O)N1` (stereo partly drawn) [GS-270, 5-(((trans-3-(3-Cyclopropyl-4-(6-oxo-1,6-dihydropyridin-2-yl)-1H-pyrazol-1-yl)cyclobutyl)methyl)amino)-2-(2,6-dioxopiperidin-3-yl)isoindoline-1,3-dione], the pIC50 in the experiment on MOLM-13 cells (setting [1]), with MOLM-13 cells (setting [2]), in the experiment on MV4;11 cells (setting [3]) and in the experiment on MV4;11 cells (setting [4]) was less than 6.00 throughout.

Take `O=C(Cn1cc(-c2cnc3ccccc3n2)c(C2CC2)n1)NCc1ccc2c(c1)C(=O)N(C1CCC(=O)NC1=O)C2=O` (stereo not shown) [GS-271, 2-(3-Cyclopropyl-4-(quinoxalin-2-yl)-1H-pyrazol-1-yl)-N-((2-(2,6-dioxopiperidin-3-yl)-1,3-dioxoisoindolin-5-yl)methyl)acetamide]: the pIC50 in the experiment with MOLM-13 cells (setting [1]) is 6.00 to 7.00; with MOLM-13 cells (setting [2]), 7.00 to 8.00; with MV4;11 cells (setting [3]), 7.00 to 8.00; with MV4;11 cells (setting [4]), 7.00 to 8.00.

Take `O=C1CCC(N2C(=O)c3ccc(NC[C@H]4C[C@H](n5cc(-c6ncccc6Cl)c(C6CC6)n5)C4)cc3C2=O)C(=O)N1` (stereo partly drawn) [GS-272, 5-(((trans-3-(4-(3-Chloropyridin-2-yl)-3-cyclopropyl-1H-pyrazol-1-yl)cyclobutyl)methyl)amino)-2-(2,6-dioxopiperidin-3-yl)isoindoline-1,3-dione]: the pIC50 is 7.00 to 8.00 in the experiment with MOLM-13 cells (setting [1]), more than 8.00 in the experiment on MOLM-13 cells (setting [2]), more than 8.00 with MV4;11 cells (setting [3]) and more than 8.00 with MV4;11 cells (setting [4]).

For the origin of these results see US20240050428A1 (Cullgen (Shanghai), Inc., priority 2020, published 2024).
